Test results taken from patent publication US20260159474A1, “Aminoindane Compounds and Compositions and Methods of Their Therapeutic Use” (Solvonis Therapeutics Ireland Holdings Limited, priority 2021, published 2026).

Test system: extracellular noradrenaline (NE) in the nucleus accumbens (NAcc)
Assay: In vivo microdialysis in rat nucleus accumbens, norepinephrine
Parameters: species or system Sprague Dawley rats
Conditions: 7 mg/kg I.P.; for time of peak NE level / peak NE level: rat NAcc microdialysis; for peak NE level: baseline = 100%; for Norepinephrine (NE) level (% from baseline): rat NAcc
Procedure: Methods and Procedure: This study was conducted in compliance with previously described procedures to assure data integrity, adherence to GLP regulations, and standard preclinical study and surgery procedures. The in vivo microdialysis technique was applied to measure the over-time variations of DA, 5-HT, and NE extracellular (EC) concentrations in conscious, freely-moving Sprague Dawley rats. Levels of the neurotransmitters in microdialysis samples were determined using LC-MS/MS analysis. The experiment was also conducted with MDMA for comparative purposes.
As it relates to cannula implantation, the rats were anesthetized with isoflurane 4% in oxygen (2-2.5 L/min), then the isoflurane concentration 2-2.5% was maintained via a nose cone adapted to the stereotaxic apparatus. The rats were treated with meloxicam (0.2 mg/kg, subcutaneously, sc; Meloxidolor) and amoxicilline (150 mg/kg, sc, Betamox LA). The skull was then shaved and disinfected. Rats were then placed in a stereotaxic apparatus for small animals. One vertical guide cannula was inserted through a 1 mm hole drilled on the exposed skull. Coordinates, with respect to the bregma to target specific brain areas, followed indications from stereotaxic atlas of the rat brain. Specifically a guide cannula (MAB 4.12.IC, Agn Tho's AB, Lidinga, Sweden) was inserted in the NAcc (anteroposterior+1.6; lateral −1.6; dorsoventral −6.0). The guide cannula was then secured with dental cement and 2-4 screws. At the end of the surgery the animal was isolated in a single cage during recovery, for a period of at least one week, during which animal health conditions were checked twice daily and the weight recorded twice a week. Animals continued to be housed singly throughout the experiment. One day before the experiment the cannula stylet was removed and a microdialysis probe with a dialyzing length of 2 mm (MAB 4.12.2 Cu, Agn Tho's AB, Lidingo, Sweden) was inserted. Probes can be re-used 2 times for 2 experimental sessions after appropriate cleaning with fresh milliQ water.
Post-surgery, the rats were maintained in a heating chamber prior to waking up in order to avoid hypothermia that could be caused by anaesthesia. 5 mL of physiologic solution was subcutaneously administered immediately after surgery, and once/day for 2-3 days, if signs of dehydration are noticed. Meloxicam (Meloxidolor) 0.2 mg/kg was again administered subcutaneously the day after surgery as well as after 48 h after surgery together with Amoxicilline Long Acting (Betamox LA) 150 mg/kg. Health status and body weight was checked every day during the first week.
The animals were treated with the therapeutic compounds, and MDMA, or their vehicle (saline) according to a Latin square design over 5 separate experimental days (one day/week). The treatments were administered in a volume of 1 mL/kg intraperitoneally.
On the day of the experiment, each animal was taken into the laboratory in its home cage. Inlet tubing of the probe was attached to a dual quartz-lined two channel liquid swivel mounted on a low mass spring counterbalance arm which, in turn, was connected to a gas-tight syringe on a microinfusion pump. […] An equilibration period of about two hours of perfusion was allowed before collecting samples. Following the equilibration period, 4 basal samples were collected for each experimental animal followed by further 10 post-treatment samples. Samples were collected every 20 minutes (up to 3 hours and 20 minutes post-treatment) by means of a refrigerated auto-sampler (Univentor 820 Microsampler, AgnTho's, Sweden) maintained at +8 “C. At the end of all experimental sessions, 2 μL of 0.1% methylene blue solution was injected through the microdialysis probe, animals were euthanized, and their brains removed to confirm the correct probe-position.
As mentioned, the concentration of DA, 5-HT and NE in CSF samples were determined using an optimized method based on LC-MS/MS analysis. […]

SMILES | time of peak NE level [min] | peak NE level [%] | Norepinephrine (NE) level (% from baseline) (0 min (basal sample)) [%] | Norepinephrine (NE) level (% from baseline) (20 min post-admin) [%] | Norepinephrine (NE) level (% from baseline) (40 min post-admin) [%] | Norepinephrine (NE) level (% from baseline) (60 min post-admin) [%] | Norepinephrine (NE) level (% from baseline) (80 min post-admin) [%] | Norepinephrine (NE) level (% from baseline) (100 min post-admin) [%] | Norepinephrine (NE) level (% from baseline) (120 min post-admin) [%] | Norepinephrine (NE) level (% from baseline) (140 min post-admin) [%] | Norepinephrine (NE) level (% from baseline) (160 min post-admin) [%] | Norepinephrine (NE) level (% from baseline) (180 min post-admin) [%] | Norepinephrine (NE) level (% from baseline) (200 min post-admin) [%] | Norepinephrine (NE) level (% from baseline) (−20 min (basal sample)) [%]
CNC(C)Cc1ccc2c(c1)OCO2 (stereo not drawn) [MDMA] | 40 | 473 | 100 | 113 | 473 | 457 | 375 | 348 | 350 | 320 | 295 | 275 | 255 | 100
COC(=O)c1ccc2c(c1)CC(N)C2 (stereo not drawn) [CMP-405, 2-aminoindane-5-methylcarboxylate] | 60 | 188 | 101 | 106 | 167 | 188 | 147 | 136 | 125 | 107 | 122 | 105 | 106 | 99
COc1ccc2c(c1)CC(N)C2 (stereo not drawn) [MEAI, 5-methoxy-2-aminoindane] | 40 | 366 | 97 | 132 | 366 | 295 | 208 | 194 | 187 | 167 | 140 | 149 | 133 | 103
